This passage reports thermal stabilization response results from PubChem BioAssay AID588468 (NMMLSC, 2011).

SMILES strings stand for the structures. Calls of active or inactive are those of the source.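 Rule for the calls: active = compounds whose thermal stabilization response of the kinase is above zero; inactive = the rest.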

Sequence of Beta-adrenergic receptor kinase 1 (Homo sapiens) (P25098 whole entry, looked up): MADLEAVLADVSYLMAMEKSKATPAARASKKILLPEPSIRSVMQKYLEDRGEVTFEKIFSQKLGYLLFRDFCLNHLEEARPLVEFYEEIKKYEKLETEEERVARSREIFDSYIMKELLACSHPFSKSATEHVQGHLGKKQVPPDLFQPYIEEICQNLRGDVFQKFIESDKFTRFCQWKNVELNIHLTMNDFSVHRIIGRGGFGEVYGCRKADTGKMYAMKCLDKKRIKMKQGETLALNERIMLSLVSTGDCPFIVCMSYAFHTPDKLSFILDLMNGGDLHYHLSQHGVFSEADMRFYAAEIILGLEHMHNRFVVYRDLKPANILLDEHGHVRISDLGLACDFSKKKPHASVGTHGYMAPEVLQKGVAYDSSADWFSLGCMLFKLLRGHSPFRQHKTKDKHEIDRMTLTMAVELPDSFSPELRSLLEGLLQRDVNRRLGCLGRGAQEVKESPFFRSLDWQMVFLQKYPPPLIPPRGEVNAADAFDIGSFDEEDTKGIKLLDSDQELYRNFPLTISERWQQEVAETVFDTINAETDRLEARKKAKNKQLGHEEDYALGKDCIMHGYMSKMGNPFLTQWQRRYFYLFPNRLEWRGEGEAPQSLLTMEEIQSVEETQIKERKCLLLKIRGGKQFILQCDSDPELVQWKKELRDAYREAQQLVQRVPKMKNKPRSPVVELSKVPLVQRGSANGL

This assay concerns the target Beta-adrenergic receptor kinase 1 (Homo sapiens) (UniProt P25098). Briefly: ligand-induced GRK2 thermal stabilization – biophysical, Thermofluor, set 2, orthogonal assay for GRK2 aptamer-displacement inhibitor project, late-stage follow-up (AID 588468). To be noted: purified GRK2 thermal shift, ANS fluorescence; at 200 µM; stronger effect = higher value. On the technique in general: DSF heats the sample and reads unfolding from a dye or from intrinsic fluorescence.
With `Cc1ccccc1NC(=O)CCS(=O)(=O)c1ccc(Br)s1`, the thermal stabilization response is 116%. In the case of `O=C(CCS(=O)(=O)c1ccc(Br)cc1)NCc1cccs1`, the thermal stabilization response is -152% (inactive). `COc1ccc(Cl)cc1NC(=O)CCS(=O)(=O)c1ccc(Br)cc1`: the thermal stabilization response is -601% (inactive). For `COc1ccc([N+](=O)[O-])cc1NC(=O)CCS(=O)(=O)c1ccc(Br)cc1`, the thermal stabilization response was -85.1% (inactive). Regarding `COc1ccc(CCNC(=O)CCS(=O)(=O)c2ccc(Br)cc2)cc1OC`, the thermal stabilization response was -74.6% (inactive).

As to `CCOc1ccccc1NC(=O)CCS(=O)(=O)c1ccc(Br)cc1`, the thermal stabilization response was -16.1% (inactive). `O=C(CN1CCc2ccccc21)NC(=O)NCc1ccccc1`: the thermal stabilization response is 25.7%. As to `CCOc1ccc(NC(=O)CCS(=O)(=O)c2ccc(Br)cc2)cc1`, the thermal stabilization response was -25.9% (inactive).

For the compound `Cc1cccc(CCNC(=O)CCS(=O)(=O)c2ccc(Br)cc2)c1`, the thermal stabilization response is 44.5%. As for `CC(CS(=O)(=O)c1ccc2c(c1)NC(=O)CS2)C(=O)NCc1ccccc1Cl` (stereo not drawn), the thermal stabilization response is -20.4% (inactive).

With `O=C(CSc1nc2ccccc2c(=O)n1-c1ccccc1)NC(=O)CN1CCCC1=O`, the thermal stabilization response is -62% (inactive). As for `O=C(CCS(=O)(=O)c1ccc(Br)s1)Nc1ccccc1Br`, the thermal stabilization response is -73.1% (inactive). The figure for `CCN(CC)c1ccc(NC(=O)CCS(=O)(=O)c2ccc(Br)cc2)c(C)c1` is 72%; for `Cc1cc2ccccc2n1CCNC(=O)C(C)Oc1ccccc1` (stereo not drawn) it is -116% (inactive); for `COC(=O)c1ccc(NC(=O)CCS(=O)(=O)c2ccc(Br)cc2)cc1` it is -62.8% (inactive).

For `C#CCSc1nc2sc3c(c2c(=O)n1C)CCC3`, the thermal stabilization response was 21.3%. Take `O=C(CCS(=O)(=O)c1ccc(Br)cc1)Nc1ccc(Br)cc1F`: the thermal stabilization response was -34.7% (inactive). Take `NS(=O)(=O)c1ccc(CCNC(=O)CCS(=O)(=O)c2ccc(Br)cc2)cc1`: the thermal stabilization response is -107% (inactive).

Turning to `COC(=O)c1ccccc1NC(=O)CCS(=O)(=O)c1ccc(Br)s1`, the thermal stabilization response is -184% (inactive).

Consider `COc1ccc(NC(=O)CCS(=O)(=O)c2ccc(Br)s2)cc1`, for which the thermal stabilization response is -93.6% (inactive). Consider `CC(=O)N1CCN(Cc2nc3cc(Cl)ccc3c(=O)[nH]2)CC1`, for which the thermal stabilization response was -41.4% (inactive).

`Cc1ccc(CCNC(=O)CCS(=O)(=O)c2ccc(Br)cc2)cc1`: the thermal stabilization response is 1.04%.

Consider `O=C(O)Cc1ccc(-n2cccc2)cc1`, for which the thermal stabilization response was -127% (inactive).
